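Protocol summary: plate cells (96-well), add compound at 5 concentrations, incubate 48 h, interpolate endpoints linearly. GI50 marks 50% less growth.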 The source made the active and inactive calls. No stated cut-off is given here; in the data, active = GI50 up to about 1.1 µM and inactive = higher.
What was measured:
Experiment in all cases: inhibition of tumour cell growth, NCI panel, 48 h
[1] = system: 786-0
[2] = system: A549
[3] = system: COLO 205
[4] = system: HCT-116
[5] = system: K562
[6] = system: M14
[7] = system: M19-MEL
[8] = system: MDA-MB-231
[9] = system: MOLT-4
[10] = system: NCI-H460
[11] = system: OVCAR-3
[12] = system: OVCAR-5
[13] = system: PC-3
[14] = system: RXF 393
[15] = system: SK-MEL-28
[16] = system: SN12C
[17] = system: SNB-19
[18] = system: SNB-75
[19] = system: SR
[20] = system: UACC-62

Measured: GI50

Cc1ccccc1C1=C/C(=C(\SS/C(C(=O)c2ccc(OCC(=O)O)c(Cl)c2Cl)=C2\C=C(c3ccccc3C)SS2)C(=O)c2ccc(OCC(=O)O)c(Cl)c2Cl)SS1
inactive: [1] 33.3 µM | [2] 46.9 µM | [3] 12.2 µM | [4] 21.7 µM | [5] 8.65 µM | [6] 25.5 µM | [7] 21.3 µM | [8] 22.6 µM | [9] 19.9 µM | [10] 26.4 µM | [11] 16.5 µM | [12] 51.1 µM | [13] 6.92 µM | [14] 22.4 µM | [15] 26.4 µM | [16] 20.1 µM | [17] 22.5 µM | [18] 34.7 µM | [19] 24.1 µM | [20] 18 µM

C[C@H]1CC[C@H](NC(=O)N(CCCl)N=O)CC1
inactive: [1] 31.6 µM | [2] 51.3 µM | [3] 32.7 µM | [4] 39.6 µM | [5] 34.3 µM | [6] 27.6 µM | [7] 41.3 µM | [8] 48 µM | [9] 18.3 µM | [10] 39.1 µM | [11] 42.1 µM | [12] 55.7 µM | [13] 47.9 µM | [14] 36 µM | [15] 46.2 µM | [16] 40.4 µM | [17] 38.7 µM | [18] 31.1 µM | [19] 10.6 µM | [20] 14.3 µM

Cc1ccc(C(=O)Nc2ccc(S(=O)(=O)O)c3cc(S(=O)(=O)O)cc(S(=O)(=O)O)c23)cc1NC(=O)c1cccc(NC(=O)Nc2cccc(C(=O)Nc3cc(C(=O)Nc4ccc(S(=O)(=O)O)c5cc(S(=O)(=O)O)cc(S(=O)(=O)O)c45)ccc3C)c2)c1 [SURAMIN]
inactive: [1] 74.6 µM | [2] 56.4 µM | [3] > 72.9 µM | [4] 76 µM | [5] > 93.5 µM | [6] 74.8 µM | [7] 59.7 µM | [8] > 100 µM | [9] > 80 µM | [10] > 80.5 µM | [11] > 93.3 µM | [12] > 50.6 µM | [13] > 100 µM | [14] > 92.7 µM | [15] > 91.6 µM | [16] > 80.9 µM | [17] > 100 µM | [18] 48.2 µM | [19] 69.3 µM | [20] 54.6 µM

— ChEMBL document CHEMBL1201862, “PubChem BioAssay data set” (2004)
